From paper PMC10290124 (Nature Communications, 2023)

Assays:
human TRPV4 (hTRPV4) [1] = target: T1, human TRPV4 (hTRPV4) (Homo sapiens, UniProt Q9HBA0); assay: cryo-EM structure ([…] Å, open state); EC50 from Fura-2 calcium imaging in HEK […] cells; type: cell-based; set-up: with RhoA
RhoA = target: T2, RhoA (Homo sapiens, UniProt P61586); assay: cryo-EM structure of the hTRPV4-RhoA complex (ARD-RhoA local refinement, […] Å); type: binding
T2 construct: endogenous RhoA from HEK 293S cells, co-purified with hTRPV4; with TRPV4
T2 sequence (P61586 1-190): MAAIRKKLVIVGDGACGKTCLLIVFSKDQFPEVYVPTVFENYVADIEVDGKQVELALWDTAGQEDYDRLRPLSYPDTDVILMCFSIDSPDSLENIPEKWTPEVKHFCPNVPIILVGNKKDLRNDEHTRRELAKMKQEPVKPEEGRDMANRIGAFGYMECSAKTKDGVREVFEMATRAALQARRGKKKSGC
T2 sequence (Q9HBA0 whole entry partner): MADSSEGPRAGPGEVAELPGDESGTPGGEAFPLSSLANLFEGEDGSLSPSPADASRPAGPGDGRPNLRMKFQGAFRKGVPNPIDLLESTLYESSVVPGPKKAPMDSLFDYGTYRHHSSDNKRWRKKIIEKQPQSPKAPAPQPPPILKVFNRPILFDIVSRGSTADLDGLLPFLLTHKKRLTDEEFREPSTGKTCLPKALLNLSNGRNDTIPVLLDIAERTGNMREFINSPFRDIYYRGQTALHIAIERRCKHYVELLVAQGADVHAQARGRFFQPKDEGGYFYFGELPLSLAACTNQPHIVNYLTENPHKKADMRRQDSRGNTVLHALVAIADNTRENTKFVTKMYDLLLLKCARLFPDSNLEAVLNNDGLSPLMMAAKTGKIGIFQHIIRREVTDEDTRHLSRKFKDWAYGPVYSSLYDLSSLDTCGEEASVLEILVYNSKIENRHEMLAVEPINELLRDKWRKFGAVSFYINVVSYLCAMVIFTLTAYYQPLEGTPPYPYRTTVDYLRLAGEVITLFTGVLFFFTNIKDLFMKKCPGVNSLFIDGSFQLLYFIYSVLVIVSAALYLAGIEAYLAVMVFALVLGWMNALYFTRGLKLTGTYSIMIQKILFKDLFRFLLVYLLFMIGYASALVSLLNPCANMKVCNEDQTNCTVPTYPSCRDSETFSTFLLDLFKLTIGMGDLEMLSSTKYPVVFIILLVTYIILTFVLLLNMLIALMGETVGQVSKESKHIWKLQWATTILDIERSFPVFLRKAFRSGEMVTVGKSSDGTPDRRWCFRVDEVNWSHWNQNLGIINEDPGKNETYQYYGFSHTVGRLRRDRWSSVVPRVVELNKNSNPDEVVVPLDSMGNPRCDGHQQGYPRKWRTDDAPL

human TRPV4 (hTRPV4) [2] = target: T1, human TRPV4 (hTRPV4)

T1 sequence (Q9HBA0 whole entry): as the sequence (Q9HBA0 whole entry partner) above
T1 sequence (P61586 1-190 partner): as the sequence (P61586 1-190) above

CCCCCCCCCC(=O)O[C@@H]1[C@@H](C)[C@@]2(O)[C@@H](C=C(CO)C[C@@]3(O)C(=O)C(C)=C[C@@H]23)[C@@H]2C(C)(C)[C@]12OC(=O)CCCCCCCCC [4α-PDD, 4α-phorbol 12,13-didecanoate]
EC50 (human TRPV4 (hTRPV4) [1]): 450 ± 39 nM

Nc1nc2c(ncn2[C@@H]2O[C@H](CO[P@](=O)(O)OP(=O)(O)O)[C@@H](O)[C@H]2O)c(=O)[nH]1 [GDP, guanosine diphosphate]
cryo-EM structure of the hTRPV4-RhoA complex (ARD-RhoA local refinement, 3.49 Å) (RhoA): unambiguously identify the endogenous molecule of guanosine diphosphate (GDP) bound in the RhoA ligand-binding pocket

Cc1c(C(=O)Nc2cccc(C(F)(F)F)c2)cc(-c2ccccc2)n1CCCN1CCOCC1 [HC-067047]
IC50 (human TRPV4 (hTRPV4) [2]): 25 ± 6.2 nM
